Data published in patent US20060030600A1, “Dual NK1/NK3 receptor antagonists for the treatment of schizophrenia” (priority 2004, published 2006).

Tests used:
human NK1 receptor = human NK1 receptor (Homo sapiens, UniProt P25103); assay: NK1 receptor affinity, [3H]substance P binding; conditions: human NK1 receptors in CHO cells, [3H]substance P 0.6 nM; read-out: pki NK1 (converted)
Protocol: The affinity of test compounds for the NK1 receptor was evaluated at human NK1 receptors in CHO cells infected with the human NK1 receptor (using the Semliki virus expression system) and radiolabelled with [^3H]substance P (final concentration 0.6 nM). Binding assays were performed in HEPES buffer (50 mM, pH 7.4) containing BSA (0.04%) leupeptin (16.8 μg/ml), MnCl2 (3mM) and phosphoramidon (2 μM). Binding assays consisted of 250 μl of membrane suspension (approximately 1.5 μg/well in a 96 well plate), […] of buffer of displacing agent and 125 μl of [^3H]substance P. Displacement curves were determined with at least seven concentrations of the compound. The assay tubes were incubated for 60 min at room temperature after which time the tube contents were rapidly filtered under vacuum through GF/C filters presoaked for 60 min with PEI (0.3%) with 3×1 ml washes of HEPES buffer (50 mM, pH 7.4). The radioactivity retained on the filters was measured by scintillation counting. All assays were performed in duplicate in at least 2 separate experiments.

[1] = target: T1, Recombinant human NK3 (hNK3) receptor (Homo sapiens, UniProt P29371); assay: NK3 receptor affinity, [3H]SR142801 binding; conditions: hNK3 receptor membranes, [3H]SR142801 0.3 nM; read-out: pki NK3 (converted)
T1 construct: expressed in transfected cells
T1 sequence (P29371 1-465): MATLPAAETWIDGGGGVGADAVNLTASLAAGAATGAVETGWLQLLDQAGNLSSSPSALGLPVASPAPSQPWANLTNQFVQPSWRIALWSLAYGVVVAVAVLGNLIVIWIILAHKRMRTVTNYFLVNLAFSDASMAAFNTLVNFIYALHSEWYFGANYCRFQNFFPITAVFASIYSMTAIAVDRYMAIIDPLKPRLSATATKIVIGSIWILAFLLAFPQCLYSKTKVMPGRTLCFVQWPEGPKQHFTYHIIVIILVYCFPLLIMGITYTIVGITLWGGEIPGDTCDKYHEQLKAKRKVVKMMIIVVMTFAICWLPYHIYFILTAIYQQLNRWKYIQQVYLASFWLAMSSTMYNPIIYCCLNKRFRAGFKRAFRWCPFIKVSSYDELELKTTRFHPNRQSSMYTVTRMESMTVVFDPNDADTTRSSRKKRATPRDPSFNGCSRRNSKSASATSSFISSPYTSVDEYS
Protocol: Recombinant human NK3 (hNK3) receptor affinity was determined in a 96 well plate assay, using [^3H]SR142801 (final concentration 0.3 nM) to radiolabel the hNK3 receptor in the presence of 10 concentrations of competing compound or buffer. Non specific binding was determined using 10 μM SB222200. Assay buffer consisted of Tris-HCl (50 mM, pH 7.4), BSA (0.1%), MnCl2 (4 mM) and phosphoramidon (1 μM). Membrane preparations of hNK3 receptors (approximately 2.5 μg/well in a 96 well plate) were used to initiate the incubation for 90 min at room temperature. This assay was terminated by rapid filtration under vacuum through GF/C filters, presoaked for 90 min with PEI (0.3%), with 3×0.5 ml washes of ice-cold Tris buffer (50 mM, pH 7.4) containing 0.1% BSA. The radioactivity retained on the filters was measured by scintillation counting. All assays were performed in duplicate in at least two separate experiments.

[2] = phase II trial, cited from earlier work

Chain of human NK1 receptor (P25103 whole entry): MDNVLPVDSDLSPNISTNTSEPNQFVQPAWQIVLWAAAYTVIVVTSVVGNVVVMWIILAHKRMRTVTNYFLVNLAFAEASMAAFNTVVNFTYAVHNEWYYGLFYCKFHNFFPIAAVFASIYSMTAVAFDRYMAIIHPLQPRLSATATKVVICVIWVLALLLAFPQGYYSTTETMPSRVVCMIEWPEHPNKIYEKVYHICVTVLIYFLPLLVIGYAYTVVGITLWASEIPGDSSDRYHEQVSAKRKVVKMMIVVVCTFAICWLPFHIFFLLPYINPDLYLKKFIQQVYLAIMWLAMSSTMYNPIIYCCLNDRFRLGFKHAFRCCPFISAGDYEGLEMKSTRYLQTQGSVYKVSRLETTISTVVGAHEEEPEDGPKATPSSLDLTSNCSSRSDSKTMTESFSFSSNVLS

Ki (human NK1 receptor) | Ki [1] | Compound | activity on positive symptoms of schizophrenia ([2]; altered behaviour, delusion, hallucinations, extreme emotions, excited motor activity, incoherent speech) | activity on negative symptoms of schizophrenia ([2]; depression, anhedonia, social isolation or memory and attention deficits)
0.589 nM | 21.4 nM | Cc1cc(F)ccc1-c1cc(C2CCCN(S(C)(=O)=O)C2)ncc1N(C)C(=O)C(C)(C)c1cc(C(F)(F)F)cc(C(F)(F)F)c1 (racemic) [Example 12, (RS)-2-(3,5-Bis-trifluoromethyl-phenyl)-N-[4-(4-fluoro-2-methyl-phenyl)-1′-methanesulfonyl-1′,2′,3′,4′,5′,6′-hexahydro-[2,3′]bipyridinyl-5-yl]-N-methyl-isobutyramide] |  | 
1.62 nM | 14.5 nM | CC(=O)N1CCCC(c2cc(-c3ccc(F)cc3C)c(N(C)C(=O)C(C)(C)c3cc(C(F)(F)F)cc(C(F)(F)F)c3)cn2)C1 (racemic) [Example 13, (RS)-N-[1′-Acetyl-4-(4-fluoro-2-methyl-phenyl)-1′,2′,3′,4′,5′,6′-hexahydro-[2,3′]bipyridinyl-5-yl]-2-(3,5-bis-trifluoromethyl-phenyl)-N-methyl-isobutyramide] |  | 
0.562 nM | 19.5 nM | CN(C(=O)C(C)(C)c1cc(C(F)(F)F)cc(C(F)(F)F)c1)c1cnc(OCCO)cc1-c1ccccc1Cl [Example 1, 2-(3,5-Bis-trifluoromethyl-phenyl)-N-[4-(2-chloro-phenyl)-6-(2-hydroxy-ethoxy)-pyridin-3-yl]-N-methyl-isobutyramide] |  | 
1.23 nM | 9.12 nM | CN(C(=O)C(C)(C)c1cc(C(F)(F)F)cc(C(F)(F)F)c1)c1cnc(OC(CO)CO)cc1-c1ccccc1Cl [Example 2, 2-(3,5-Bis-trifluoromethyl-phenyl)-N-[4-(2-chloro-phenyl)-6-(2-hydroxy-1-hydroxymethyl-ethoxy)-pyridin-3-yl]-N-methyl-isobutyramide] |  | 
0.851 nM | 23.4 nM | Cc1cc(F)ccc1-c1cc(OC[C@@H]2CCCN2)ncc1N(C)C(=O)C(C)(C)c1cc(C(F)(F)F)cc(C(F)(F)F)c1 [Example 3, (S)-2-(3,5-Bis-trifluoromethyl-phenyl)-N-[4-(4-fluoro-2-methyl-phenyl)-6-(pyrrolidin-2-ylmethoxy)-pyridin-3-yl]-N-methyl-isobutyramide] |  | 
2.34 nM | 8.51 nM | Cc1cc(F)ccc1-c1cc(SCCO)ncc1N(C)C(=O)C(C)(C)c1cc(C(F)(F)F)cc(C(F)(F)F)c1 [Example 4, 2-(3,5-Bis-trifluoromethyl-phenyl)-N-[4-(4-fluoro-2-methyl-phenyl)-6-(2-hydroxy-ethylsulfanyl)-pyridin-3-yl]-N-methyl-isobutyramide] |  | 
1.29 nM | 16.2 nM | Cc1cc(F)ccc1-c1cc(-c2cccnc2)ncc1N(C)C(=O)C(C)(C)c1cc(C(F)(F)F)cc(C(F)(F)F)c1 [Example 5, 2-(3,5-Bis-trifluoromethyl-phenyl)-N-[4-(4-fluoro-2-methyl-phenyl)-[2,3′]bipyridinyl-5-yl]-N-methyl-isobutyramide] |  | 
0.977 nM | 24.5 nM | Cc1cc(F)ccc1-c1cc(-c2ccc[n+]([O-])c2)ncc1N(C)C(=O)C(C)(C)c1cc(C(F)(F)F)cc(C(F)(F)F)c1 [Example 6, 2-(3,5-Bis-trifluoromethyl-phenyl)-N-[4-(4-fluoro-2-methyl-phenyl)-1′-oxy-[2,3′]bipyridinyl-5-yl]-N-methyl-isobutyramide] |  | 
1.2 nM | 6.92 nM | Cc1cc(F)ccc1-c1cc(-c2cccc(CO)c2)ncc1N(C)C(=O)C(C)(C)c1cc(C(F)(F)F)cc(C(F)(F)F)c1 [Example 7, 2-(3,5-Bis-trifluoromethyl-phenyl)-N-[4-(4-fluoro-2-methyl-phenyl)-6-(3-hydroxymethyl-phenyl)-pyridin-3-yl]-N-methyl-isobutyramide] |  | 
1.82 nM | 6.17 nM | Cc1cc(F)ccc1-c1cc(-c2cncc(CO)c2)ncc1N(C)C(=O)C(C)(C)c1cc(C(F)(F)F)cc(C(F)(F)F)c1 [Example 8, 2-(3,5-Bis-trifluoromethyl-phenyl)-N-[4-(4-fluoro-2-methyl-phenyl)-5′-hydroxymethyl-[2,3′]bipyridinyl-5-yl]-N-methyl-isobutyramide] |  | 
1.55 nM | 11.5 nM | Cc1cc(F)ccc1-c1cc(-c2ccnc(CO)c2)ncc1N(C)C(=O)C(C)(C)c1cc(C(F)(F)F)cc(C(F)(F)F)c1 [Example 9, 2-(3,5-Bis-trifluoromethyl-phenyl)-N-[4-(4-fluoro-2-methyl-phenyl)-2′-hydroxymethyl-[2,4′]bipyridinyl-5-yl]-N-methyl-isobutyramide] |  | 
0.617 nM | 2.63 nM | Cc1cc(F)ccc1-c1cc(C2=CCN(S(C)(=O)=O)CC2)ncc1N(C)C(=O)C(C)(C)c1cc(C(F)(F)F)cc(C(F)(F)F)c1 [Example 10, 2-(3,5-Bis-trifluoromethyl-phenyl)-N-[4-(4-fluoro-2-methyl-phenyl)-1′-methanesulfonyl-1′,2′,3′,6′-tetrahydro-[2,4′]bipyridinyl-5-yl]-N-methyl-isobutyramide] |  | 
1.1 nM | 6.46 nM | Cc1cc(F)ccc1-c1cc(C2CCN(S(C)(=O)=O)CC2)ncc1N(C)C(=O)C(C)(C)c1cc(C(F)(F)F)cc(C(F)(F)F)c1 [Example 11, 2-(3,5-Bis-trifluoromethyl-phenyl)-N-[4-(4-fluoro-2-methyl-phenyl)-1′-methanesulfonyl-1′,2′,3′,4′,5′,6′-hexahydro-[2,4′]bipyridinyl-5-yl]-N-methyl-isobutyramide] |  | 
1.15 nM | 14.1 nM | Cc1cc(F)ccc1-c1cc(C2=CCSCC2)ncc1N(C)C(=O)C(C)(C)c1cc(C(F)(F)F)cc(C(F)(F)F)c1 [Example 14, 2-(3,5-Bis-trifluoromethyl-phenyl)-N-[6-(3,6-dihydro-2H-thiopyran-4-yl)-4-(4-fluoro-2-methyl-phenyl)-pyridin-3-yl]-N-methyl-isobutyramide] |  | 
0.589 nM | 6.76 nM | Cc1cc(F)ccc1-c1cc(C2=CCS(=O)(=O)CC2)ncc1N(C)C(=O)C(C)(C)c1cc(C(F)(F)F)cc(C(F)(F)F)c1 [Example 15, 2-(3,5-Bis-trifluoromethyl-phenyl)-N-[6-(1,1-dioxo-1,2,3,6-tetrahydro-1λ^6-thiopyran-4-yl)-4-(4-fluoro-2-methyl-phenyl)-pyridin-3-yl]-N-methyl-isobutyramide] |  | 
1.38 nM | 16.6 nM | Cc1cc(F)ccc1-c1cc(C2CCS(=O)(=O)CC2)ncc1N(C)C(=O)C(C)(C)c1cc(C(F)(F)F)cc(C(F)(F)F)c1 [Example 16, 2-(3,5-Bis-trifluoromethyl-phenyl)-N-[6-(1,1-dioxo-hexahydro-1λ^6-thiopyran-4-yl)-4-(4-fluoro-2-methyl-phenyl)-pyridin-3-yl]-N-methyl-isobutyramide] |  | 
 |  | CC(=O)N(C)C1(c2ccccc2)CCN(CCC[C@]2(c3ccc(Cl)c(Cl)c3)CCCN(C(=O)c3ccccc3)C2)CC1 [SR 142,801, Osanetant] | active on positive symptoms of schizophrenia | inactive in the treatment of negative symptoms
